Reference: ChEMBL document CHEMBL1201862, “PubChem BioAssay data set” (2004)
Activity calls are given as the source filed them.

What was measured:
[1] = A Cell Based Secondary Assay To Explore Cytotoxicity of Compounds that Sensitize Mycobacterium Tuberculosis to Beta-Lactam Antibiotics.; assay type: functional
[2] = biological target: Lytic switch protein BZLF1 (Epstein-Barr virus (strain B95-8) (HHV-4) (Human herpesvirus 4), UniProt P03206); test: inhibition of BZLF1 ZTA DNA binding – biochemical, fluorescence polarization, Epstein-Barr virus, 1536-well, counter-screen for EBNA-1 inhibitor project, dose response (AID 2377); design: species or system human gammaherpesvirus 4;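 further: fluorescence polarization of Cy5-labelled ZRE DNA probe bound by purified Zta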
[3] = biological target: Epstein-Barr nuclear antigen 1 (Epstein-Barr virus (strain B95-8) (HHV-4) (Human herpesvirus 4), UniProt P03211); test: inhibition of EBV nuclear antigen 1 DNA binding – biochemical, fluorescence polarization, 1536-well, dose response (AID 2381); design: species or system human gammaherpesvirus 4;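 further: fluorescence polarization of a Cy5 DNA probe bound by EBNA-1 protein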
Ion channel NompC = Ion channel NompC (Danio rerio, UniProt Q7T1G6); test: Fluorescence counterscreen assay for TRPML3 agonists: dose response cell-based high-throughput screening assay to identify agonists of the transient receptor potential channel N1 (TRPN1). [Related pubchem assays: 1526, 1424, 1448 ]; assay type: functional
Mucolipin-3 = Mucolipin-3 (Homo sapiens, UniProt Q8TDD5); test: Dose response cell-based high-throughput screening assay for agonists of the transient receptor potential channel ML3 (TRPML3). [Related pubchem assays: 1526, 1424, 1448 ]; assay type: functional
NADPH oxidase 1 = biological target: T1, NADPH oxidase 1 (Homo sapiens, UniProt Q9Y5S8); assay type: functional, cell-based;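 further: Cell-based assay with luminescence read-out, IC50 derived from inhibitor dose-response curves; intracellular ROS from endogenous NOX1 in intact HT29 colon cancer cells; potency of inhibitors that lower the ROS luminescence signal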
T1 sequence (Q9Y5S8 whole entry): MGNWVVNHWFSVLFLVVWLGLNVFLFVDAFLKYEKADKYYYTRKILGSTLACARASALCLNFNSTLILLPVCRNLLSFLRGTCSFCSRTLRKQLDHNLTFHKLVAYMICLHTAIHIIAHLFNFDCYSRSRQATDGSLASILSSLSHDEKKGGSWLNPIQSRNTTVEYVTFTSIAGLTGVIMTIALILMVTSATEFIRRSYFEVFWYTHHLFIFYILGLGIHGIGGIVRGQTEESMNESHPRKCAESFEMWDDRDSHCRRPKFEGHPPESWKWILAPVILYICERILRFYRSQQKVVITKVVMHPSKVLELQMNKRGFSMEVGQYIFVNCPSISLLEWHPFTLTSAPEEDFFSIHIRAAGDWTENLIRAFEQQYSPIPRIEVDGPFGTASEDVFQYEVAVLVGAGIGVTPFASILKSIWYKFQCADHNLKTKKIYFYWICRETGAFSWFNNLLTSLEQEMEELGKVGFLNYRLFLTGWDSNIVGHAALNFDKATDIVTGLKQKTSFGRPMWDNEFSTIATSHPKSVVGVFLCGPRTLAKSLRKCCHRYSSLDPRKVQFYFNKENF

[4] = Trypanosoma cruzi growth suppression in host cells – NIH3T3 host cells, beta-gal luminescence, confirmation (AID 2044); assay type: functional, cell-based;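 further: intracellular parasites grown in NIH/3T3 mouse fibroblasts as host cells; luminescent beta-galactosidase reporter signal from transgenic T. cruzi replicating inside host cells; inhibitors lower the luminescence signal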
[5] = NIH3T3 cell viability loss – ATP luminescence, mouse fibroblasts, counter-screen, dose response (AID 2010); assay type: functional, cell-based;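 further: cells exposed to compound for about 90 hours before reading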
Estrogen receptor = biological target: T2, Estrogen receptor (Homo sapiens, UniProt P03372);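 further: potency for inhibiting coactivator peptide recruitment to the receptor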
T2 sequence (P03372 whole entry): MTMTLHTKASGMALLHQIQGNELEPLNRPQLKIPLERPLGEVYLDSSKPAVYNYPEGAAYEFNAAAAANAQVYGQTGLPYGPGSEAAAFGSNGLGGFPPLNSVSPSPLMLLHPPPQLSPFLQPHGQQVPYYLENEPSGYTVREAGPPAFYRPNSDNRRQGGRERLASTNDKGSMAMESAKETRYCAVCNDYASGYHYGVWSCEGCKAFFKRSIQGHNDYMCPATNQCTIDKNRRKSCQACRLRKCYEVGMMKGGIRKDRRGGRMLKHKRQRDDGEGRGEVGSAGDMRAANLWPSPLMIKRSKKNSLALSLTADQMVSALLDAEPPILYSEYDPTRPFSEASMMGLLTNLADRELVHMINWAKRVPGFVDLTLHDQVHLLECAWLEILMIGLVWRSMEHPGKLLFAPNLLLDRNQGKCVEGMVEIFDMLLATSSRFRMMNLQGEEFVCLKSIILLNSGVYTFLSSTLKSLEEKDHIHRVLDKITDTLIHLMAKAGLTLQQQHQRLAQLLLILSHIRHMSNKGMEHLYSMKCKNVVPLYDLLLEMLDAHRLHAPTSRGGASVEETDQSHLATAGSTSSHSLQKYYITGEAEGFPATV

[6] = viability loss of HPDE-C7K cells – cell-based, fluorescence, HTS, primary screen (AID 431); assay type: functional; settings: Homo sapiens
[7] = viability of HCT116 lacking mutant beta-catenin – cell-based, human colon tumor, dose response (AID 1045); assay type: functional;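 further: HCT116 colon tumor cells with beta catenin knocked out; cells exposed to compound for 60 hours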
[8] = viability of PTEN-deleted HCT116 cells – cell-based, HCT116 PTEN knockout, dose response (AID 1047); assay type: functional;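 further: HCT116 colon tumor cells with PTEN knocked out; cells exposed to compound for 60 hours before readout; potency for loss of cell viability measured by luminescence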
Bcl-2-related protein A1 = biological target: T3, Bcl-2-related protein A1 (Mus musculus, UniProt Q07440); assay type: functional;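 further: confirmatory dose–response counterscreen on Bfl-1, used to check hits from a UBC13 polyubiquitin inhibitor campaign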
T3 sequence (Q07440 whole entry): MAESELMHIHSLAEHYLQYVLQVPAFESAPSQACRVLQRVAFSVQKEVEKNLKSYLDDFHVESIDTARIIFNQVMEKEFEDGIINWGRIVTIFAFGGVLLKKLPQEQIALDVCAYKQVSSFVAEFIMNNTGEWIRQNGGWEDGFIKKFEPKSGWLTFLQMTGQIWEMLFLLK

[9] = biological target: T4, Ubiquitin-conjugating enzyme E2 N (Homo sapiens, UniProt P61088); assay type: functional
T4 sequence (P61088 whole entry): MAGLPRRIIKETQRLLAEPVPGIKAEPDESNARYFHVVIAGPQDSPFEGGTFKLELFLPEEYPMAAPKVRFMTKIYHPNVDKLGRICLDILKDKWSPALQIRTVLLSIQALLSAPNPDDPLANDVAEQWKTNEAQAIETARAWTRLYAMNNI

[10] = Luminescence Cell-Based Dose Retest to Confirm Inhibitors of Cancer Stem Cells. [Related pubchem assays (depositor defined):AID2717, AID2721]; assay type: functional; settings: Homo sapiens
[11] = biological target: T5, DNA repair protein RAD52 homolog (Homo sapiens, UniProt P43351); assay type: functional, biochemical
T5 sequence (P43351 whole entry): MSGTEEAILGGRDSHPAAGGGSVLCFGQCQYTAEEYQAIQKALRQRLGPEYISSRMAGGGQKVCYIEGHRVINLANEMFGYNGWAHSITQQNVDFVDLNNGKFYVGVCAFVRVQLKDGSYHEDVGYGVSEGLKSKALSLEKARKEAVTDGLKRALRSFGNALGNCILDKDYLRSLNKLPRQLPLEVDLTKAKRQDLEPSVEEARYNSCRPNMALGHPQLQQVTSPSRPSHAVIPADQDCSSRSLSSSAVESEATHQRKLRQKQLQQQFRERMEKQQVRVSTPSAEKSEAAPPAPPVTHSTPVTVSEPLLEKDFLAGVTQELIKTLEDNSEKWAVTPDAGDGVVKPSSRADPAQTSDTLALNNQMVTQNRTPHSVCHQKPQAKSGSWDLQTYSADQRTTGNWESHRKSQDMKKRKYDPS

[12] = HPDE-C7 pancreatic duct cell viability loss – fluorescence, HTS (AID 430); assay type: functional, cell-based; settings: Homo sapiens
[13] = biological target: T4, Ubiquitin-conjugating enzyme E2 N; assay type: functional; remark: listed apart in the source
[14] = biological target: Long-chain-fatty-acid--AMP ligase FadD28 (Mycobacterium tuberculosis, UniProt P9WQ59); test: Fluorescence polarization aasay to screen for inhibitors that compete for the binding of FadD28 to a bisubstrate Measured in Biochemical System Using Plate Reader - 2147-01_Inhibitor_Dose_CherryPick_Activity.; assay type: functional, Mycobacterium tuberculosis H37Rv
[15] = Luminescence Cell-Based Dose Response HTS to Identify Inhibitors of 5'UTR Stem-Loop Driven Prion Protein mRNA Translation in H4 Neuroglioblastoma Cells. [Related pubchem assays: 1827 (Project Summary), 1813 (Primary HTS)]; assay type: functional
[16] = luciferase reporter signal suppression in cells – H4 neuroglioma cells, luminescence, dose response (AID 1990); assay type: functional, cell-based
[17] = alpha-synuclein stem-loop luciferase translation blockers – H4 neuroglioma cells, luminescence, confirmation (AID 1988); assay type: functional, cell-based
[18] = biological target: T6, Mannose-6-phosphate isomerase (Homo sapiens, UniProt P34949); test: MPI enzyme activity inhibition – biochemical, fluorescence intensity, coupled assay, primary screen (AID 1209)
T6 sequence (P34949 whole entry): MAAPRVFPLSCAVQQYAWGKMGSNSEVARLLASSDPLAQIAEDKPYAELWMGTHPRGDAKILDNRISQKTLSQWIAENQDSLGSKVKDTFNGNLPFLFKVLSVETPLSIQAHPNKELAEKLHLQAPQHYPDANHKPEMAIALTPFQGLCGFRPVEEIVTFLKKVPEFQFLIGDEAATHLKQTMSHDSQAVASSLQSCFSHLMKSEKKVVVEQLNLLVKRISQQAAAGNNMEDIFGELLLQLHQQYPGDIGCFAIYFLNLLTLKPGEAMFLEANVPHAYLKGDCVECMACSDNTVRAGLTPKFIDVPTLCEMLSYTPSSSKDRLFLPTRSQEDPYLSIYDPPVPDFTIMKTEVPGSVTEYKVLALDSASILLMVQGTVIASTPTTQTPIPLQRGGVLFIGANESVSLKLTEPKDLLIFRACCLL

[19] = biological target: T6, Mannose-6-phosphate isomerase; test: MPI inhibition at elevated mannose 6-phosphate – biochemical, fluorescence intensity, high mannose 6-phosphate, primary screen (AID 1220)

Sequence of Lytic switch protein BZLF1 (P03206 whole entry): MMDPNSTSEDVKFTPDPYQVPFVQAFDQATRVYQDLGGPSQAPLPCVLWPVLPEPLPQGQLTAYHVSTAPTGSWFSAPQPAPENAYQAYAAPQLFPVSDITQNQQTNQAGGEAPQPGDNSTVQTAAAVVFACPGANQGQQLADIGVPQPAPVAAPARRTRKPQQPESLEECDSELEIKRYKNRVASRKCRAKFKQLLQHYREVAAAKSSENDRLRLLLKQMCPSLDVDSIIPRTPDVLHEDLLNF
Sequence of Mucolipin-3 (Q8TDD5 whole entry): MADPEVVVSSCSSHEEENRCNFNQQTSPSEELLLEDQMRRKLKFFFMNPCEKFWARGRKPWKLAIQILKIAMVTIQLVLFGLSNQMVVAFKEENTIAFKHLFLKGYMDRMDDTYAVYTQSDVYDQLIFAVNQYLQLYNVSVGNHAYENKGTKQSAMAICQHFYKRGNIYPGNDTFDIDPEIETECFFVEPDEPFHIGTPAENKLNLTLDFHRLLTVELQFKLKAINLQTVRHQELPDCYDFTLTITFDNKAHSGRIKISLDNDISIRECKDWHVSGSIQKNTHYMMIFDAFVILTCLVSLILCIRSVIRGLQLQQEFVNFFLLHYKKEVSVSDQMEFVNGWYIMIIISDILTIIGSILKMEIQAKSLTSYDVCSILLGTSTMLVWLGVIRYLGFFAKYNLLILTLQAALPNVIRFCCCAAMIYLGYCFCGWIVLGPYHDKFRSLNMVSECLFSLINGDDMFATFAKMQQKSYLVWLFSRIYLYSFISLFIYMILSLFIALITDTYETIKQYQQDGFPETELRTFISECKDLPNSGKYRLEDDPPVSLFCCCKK
Sequence of Ion channel NompC (Q7T1G6 whole entry): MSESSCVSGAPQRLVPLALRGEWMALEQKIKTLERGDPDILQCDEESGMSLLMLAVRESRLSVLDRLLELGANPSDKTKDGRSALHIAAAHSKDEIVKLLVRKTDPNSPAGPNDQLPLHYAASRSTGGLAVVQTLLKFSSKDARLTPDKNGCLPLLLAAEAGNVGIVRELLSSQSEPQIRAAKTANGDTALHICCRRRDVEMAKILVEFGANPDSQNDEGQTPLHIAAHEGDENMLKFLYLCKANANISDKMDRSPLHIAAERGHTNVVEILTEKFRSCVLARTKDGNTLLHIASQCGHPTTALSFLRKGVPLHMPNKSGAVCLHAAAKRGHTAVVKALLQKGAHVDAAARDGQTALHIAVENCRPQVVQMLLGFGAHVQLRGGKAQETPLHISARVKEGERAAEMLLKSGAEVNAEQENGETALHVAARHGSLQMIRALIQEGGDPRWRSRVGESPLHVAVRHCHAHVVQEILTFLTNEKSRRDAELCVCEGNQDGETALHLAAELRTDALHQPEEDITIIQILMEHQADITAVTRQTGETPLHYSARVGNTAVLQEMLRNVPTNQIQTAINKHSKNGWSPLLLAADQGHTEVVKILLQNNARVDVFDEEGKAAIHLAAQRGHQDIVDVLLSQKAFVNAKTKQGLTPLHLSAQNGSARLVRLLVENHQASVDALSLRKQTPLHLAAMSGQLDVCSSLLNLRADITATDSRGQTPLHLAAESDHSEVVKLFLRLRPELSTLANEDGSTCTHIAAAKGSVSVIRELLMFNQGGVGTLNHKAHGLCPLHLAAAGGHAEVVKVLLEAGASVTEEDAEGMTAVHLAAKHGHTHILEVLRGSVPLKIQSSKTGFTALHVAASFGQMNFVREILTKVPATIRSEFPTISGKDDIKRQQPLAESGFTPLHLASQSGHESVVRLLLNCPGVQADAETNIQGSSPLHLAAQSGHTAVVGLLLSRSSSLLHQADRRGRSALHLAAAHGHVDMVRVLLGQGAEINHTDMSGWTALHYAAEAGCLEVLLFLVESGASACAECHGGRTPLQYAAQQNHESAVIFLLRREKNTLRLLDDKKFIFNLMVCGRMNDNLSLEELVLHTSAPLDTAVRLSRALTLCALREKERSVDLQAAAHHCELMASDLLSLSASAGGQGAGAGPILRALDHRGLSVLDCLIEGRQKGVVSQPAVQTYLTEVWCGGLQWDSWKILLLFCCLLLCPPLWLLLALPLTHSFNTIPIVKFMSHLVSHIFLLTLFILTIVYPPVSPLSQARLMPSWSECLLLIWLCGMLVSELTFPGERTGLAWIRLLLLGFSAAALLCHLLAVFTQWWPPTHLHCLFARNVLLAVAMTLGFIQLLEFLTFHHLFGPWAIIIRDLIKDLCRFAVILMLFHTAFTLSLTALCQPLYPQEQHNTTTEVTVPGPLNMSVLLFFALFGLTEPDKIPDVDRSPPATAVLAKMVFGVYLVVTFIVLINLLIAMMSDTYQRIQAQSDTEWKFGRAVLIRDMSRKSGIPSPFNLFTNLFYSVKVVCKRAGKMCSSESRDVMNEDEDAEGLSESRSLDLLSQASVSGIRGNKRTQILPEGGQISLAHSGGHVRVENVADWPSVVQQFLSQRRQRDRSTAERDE
Sequence of Epstein-Barr nuclear antigen 1 (P03211 whole entry): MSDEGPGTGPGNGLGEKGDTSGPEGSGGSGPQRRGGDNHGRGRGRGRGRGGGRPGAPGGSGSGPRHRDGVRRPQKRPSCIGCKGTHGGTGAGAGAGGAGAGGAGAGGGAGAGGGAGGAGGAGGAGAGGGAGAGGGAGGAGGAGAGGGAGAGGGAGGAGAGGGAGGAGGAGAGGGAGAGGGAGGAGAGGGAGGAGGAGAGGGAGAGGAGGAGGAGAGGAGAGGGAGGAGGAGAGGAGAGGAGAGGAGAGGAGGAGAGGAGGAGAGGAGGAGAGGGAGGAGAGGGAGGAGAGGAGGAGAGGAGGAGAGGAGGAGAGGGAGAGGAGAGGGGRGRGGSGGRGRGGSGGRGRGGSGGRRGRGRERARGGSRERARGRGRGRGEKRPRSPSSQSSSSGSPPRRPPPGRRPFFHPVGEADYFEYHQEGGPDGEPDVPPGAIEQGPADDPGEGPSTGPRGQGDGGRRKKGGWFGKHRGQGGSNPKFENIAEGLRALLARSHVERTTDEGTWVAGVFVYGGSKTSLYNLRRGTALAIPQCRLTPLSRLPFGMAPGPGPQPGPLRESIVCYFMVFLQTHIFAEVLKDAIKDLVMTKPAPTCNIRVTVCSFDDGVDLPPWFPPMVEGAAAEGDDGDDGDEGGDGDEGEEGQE
Sequence of Long-chain-fatty-acid--AMP ligase FadD28 (P9WQ59 whole entry): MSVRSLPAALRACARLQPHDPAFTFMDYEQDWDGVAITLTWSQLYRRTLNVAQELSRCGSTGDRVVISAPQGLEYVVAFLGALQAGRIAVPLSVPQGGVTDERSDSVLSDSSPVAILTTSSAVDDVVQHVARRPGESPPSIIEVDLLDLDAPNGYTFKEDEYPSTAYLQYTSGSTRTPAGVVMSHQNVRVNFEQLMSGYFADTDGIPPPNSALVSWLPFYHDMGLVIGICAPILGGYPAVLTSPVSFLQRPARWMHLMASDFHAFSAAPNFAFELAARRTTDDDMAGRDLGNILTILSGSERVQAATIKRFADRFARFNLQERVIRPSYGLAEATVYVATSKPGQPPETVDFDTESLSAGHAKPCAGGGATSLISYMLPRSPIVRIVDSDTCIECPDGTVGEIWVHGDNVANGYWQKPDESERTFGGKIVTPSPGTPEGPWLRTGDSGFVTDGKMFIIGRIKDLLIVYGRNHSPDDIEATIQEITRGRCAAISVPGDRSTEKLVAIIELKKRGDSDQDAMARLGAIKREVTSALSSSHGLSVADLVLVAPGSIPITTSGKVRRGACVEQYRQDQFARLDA

With `Cc1cc(C)cc(NC(=O)c2cc(Cl)sc2Cl)c1` the CC50 [1] was > 20 µM (active).
With `COc1ccc(NC(S)=NN=C(S)Nc2cccc(C(F)(F)F)c2)cc1` the IC50 [2] was > 111 µM (not active) and the IC50 [3] was 6.7 µM (active).
For `Cc1cc(S(=O)(=O)N2CCCCCC2)c(Cl)cc1Cl`, the EC50 (Ion channel NompC) was > 29.9 µM (not active) and the EC50 (Mucolipin-3) was > 29.9 µM (not active).
With `S=C(CCC(=S)Nc1ccc(Cl)cc1)Nc1ccc(Cl)cc1` the IC50 (NADPH oxidase 1) was > 17 µM (not active).
In the case of `Cc1cc2nc3n(c2cc1C)CCCN3`, the EC50 [4] is reported as < 0.1 µM (active), the EC50 (cells) is reported as 0.121 µM (active) and the EC50 [5] is reported as > 60 µM (not active).
With `COc1ccc(-n2c(SCC(=O)Nc3nccs3)nc3sc4c(c3c2=O)CCN(C)C4)cc1` the IC50 (Estrogen receptor) was 8.48 µM (active).
With `O=Cc1cn(-c2ccccc2)nc1-c1cc2c(ccc3ccccc32)oc1=O` the IC50 (Estrogen receptor) was 19.6 µM (active).
For `O=C(Cn1cnc2ccccc2c1=O)Nc1nc2ccccc2s1`, the IC50 [2] was > 111 µM (not active) and the IC50 [3] was 51.4 µM (not active).
For `OCCN1CCN(CCCN2c3ccccc3Sc3ccc(C(F)(F)F)cc32)CC1`, the EC50 [6] was 9.66 µM (active), the EC50 [7] was 8.41 µM (active) and the EC50 [8] was 8.4 µM (active). The IC50 (Bcl-2-related protein A1) was > 20 µM (inactive), the IC50 [9] was 17.3 µM (active) and the AC50 [10] was 4.16 µM (active). The AC50 [11] was 12.7 µM (active), the EC50 [12] was 13.2 µM (active) and the IC50 [13] was 17.5 µM (active).
In the case of `COC(=O)CN(c1cc(Cl)ccc1OC)S(=O)(=O)c1ccc(C)cc1`, the EC50 (Ion channel NompC) is reported as > 29.9 µM (not active) and the EC50 (Mucolipin-3) is reported as 3.49 µM (active).
With `CCCCCCCCNC(C)C(O)c1ccc(SC(C)C)cc1` (stereo not given) the AC50 [14] was 64.1 µM (active), the EC50 [6] was > 20 µM (not active) and the EC50 [7] was 11.3 µM (active). The EC50 [8] was 15.2 µM (active) and the EC50 [12] was > 20 µM (not active).
With `O=C(Oc1ccc(-c2nnco2)cc1)c1sc2ccccc2c1Cl` the IC50 (NADPH oxidase 1) was > 17 µM (not active).
For `CCOC(=O)c1sc(NC(=O)CN2CCCC2)c(C(=O)OCC)c1C`, the CC50 [1] was > 40 µM (active).
With `Cc1ccccc1NCc1ccc(O)c2ncccc12` the EC50 [15] was > 120 µM (not active), the EC50 [16] was 11.2 µM (active) and the EC50 [17] was 10.4 µM (active). For the same compound, the IC50 [18] was 12.5 µM (active) and the IC50 [19] was 11.5 µM (active).
With `CN(C)CCCN(C(=O)c1ccco1)c1nc2cc3c(cc2s1)OCO3` the EC50 [4] was < 0.1 µM (active), the EC50 (cells) was 0.213 µM (active) and the AC50 [11] was 25.2 µM (active). The EC50 [5] was > 60 µM (not active).
